Results published in patent publication US20080009025A1, “PROTEIN KINASE REGULATION” (priority 1999, published 2008).
Where a SMILES comes first, the peptide text is derived from it.

Biological target: T1, PDK1 (Homo sapiens, UniProt O15530)
T1 sequence (O15530 1-556): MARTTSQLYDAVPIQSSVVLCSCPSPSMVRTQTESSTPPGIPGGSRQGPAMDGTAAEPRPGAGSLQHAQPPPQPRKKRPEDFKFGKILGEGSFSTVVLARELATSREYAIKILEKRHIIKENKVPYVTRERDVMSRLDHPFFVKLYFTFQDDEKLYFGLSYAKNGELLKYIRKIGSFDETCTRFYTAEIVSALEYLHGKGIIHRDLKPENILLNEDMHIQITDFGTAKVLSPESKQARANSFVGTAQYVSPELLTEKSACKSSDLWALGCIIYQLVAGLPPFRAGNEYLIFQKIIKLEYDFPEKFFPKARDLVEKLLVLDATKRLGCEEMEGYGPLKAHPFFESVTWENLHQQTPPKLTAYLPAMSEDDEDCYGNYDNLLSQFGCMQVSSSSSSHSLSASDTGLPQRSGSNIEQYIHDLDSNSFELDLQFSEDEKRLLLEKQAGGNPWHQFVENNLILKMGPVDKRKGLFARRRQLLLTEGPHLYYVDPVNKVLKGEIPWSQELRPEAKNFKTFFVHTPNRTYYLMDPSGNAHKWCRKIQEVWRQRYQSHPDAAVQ
Assay: Phosphorylation of GST-p70 S6K-T2 by PDK1 in vitro (32P autoradiography)
Assay type: biochemical
Design: made in house; host or cells: 293 cells or E. coli
Conditions: GST-PDK1 50 nM
Procedure: FIG. 1. PIF prevents PDK1 from phosphorylating p70 S6K in vitro. GST-p70 S6K lacking the C-terminal 104 amino acids (GST-p70 S6KT2) (1 μg) was incubated for 30 min at 30° C. with Mg [γ^32P] ATP and GST-PDK1 (50 nM) in the presence or absence of either wild type (wt) GST-PIF or D978A GST-PIF (1.5 μM), or the indicated PIF peptides (4 μM) in a final volume of 20 μl. The reactions were terminated by making the solutions 1% in SDS, the samples subjected to SDS-polyacylamide gel electrophoresis, and the phosphorylation assessed by autoradiography of the gel. The position in the gel where GST-p70 S6KT2 (73 kDa) migrates is indicated with an arrow. The only other ^32P-labelled protein on the gel which is not shown, corresponded to autophosphorylation of PDK1 and contained ˜10 fold lower levels of ^32P-radioactivity than that of the GST-p70 S6T2 phosphorylated by PDK1 in the absence of PIF. A high amount of PDK1 is used in this experiment to achieve a near maximal phosphorylation of GST-p70 S6T2. If the reactions were carried out at a 10-fold lower concentration of PDK1 under conditions where the phosphorylation of GST-p70 S6T2 by PDK1 is linear with time and the amount of substrate used, then PIF still prevented the phosphorylation of GST-p70 S6T2 (data not shown). wt indicates wild type and PSer indicates phospho-serine. The results of a duplicate experiment for each condition are shown, and similar findings were obtained in five separate experiments.
Preparation of insect cell His-p70 S6K. p70 S6K with a His-epitope tag at its N-terminus lacking the carboxy terminal 104 residues is termed p70 S6K-T2. In order to prepare wild type and the mutant 412E-p70 S6K-T2 the cDNA for these constructs was amplified by PCR from the pMT2 vector encoding these forms of p70 S6K [6] using the following oligonucleotides: 5′-AGGATCCACCATGCACCATCACCATCACCATATGAGGCGAGCAAGGAGGCGG-3′ and 5′-GCGGCCGCTCAACTTTCAAGTACAGATGGAGCC-3′. The PCR products were then subcloned into the BamH1/Not1 sites of the pFASTBAC 1 vector and this vector was used to generate recombinant baculovirus using the Bac-to-Bac system (Life Technologies Inc). The resulting viruses, encoded p70 S6K-T2 or 412E-p70 S6K-T2 with an N-terminal hexahistidine sequence, and was used to infect Sf21 cells (1.5×10^6/m) at a multiplicity of infection of 5. The infected cells were harvested 72 h post-infection and the His-p70 S6K proteins purified by Ni^2+/NTA (nitrilotriacetic acid)-agarose chromatography as described previously for PKBβ [25]. […]

| effect on phosphorylation of GST-p70 S6K-T2 by PDK1 (GST fusion 1.5 μM) | Compound | effect on phosphorylation of GST-p70 S6K-T2 by PDK1 (peptide 4 μM) |
| --- | --- | --- |
| – | CC[C@H](C)[C@H](NC(=O)[C@H](CCCNC(=N)N)NC(=O)[C@@H]1CCCN1C(=O)[C@H](CCC(=O)O)NC(=O)[C@@H](N)CCCNC(=N)N)C(=O)N[C@@H](CC(C)C)C(=O)N[C@@H](CO)C(=O)N[C@@H](CCC(=O)O)C(=O)N[C@@H](CCC(=O)O)C(=O)N[C@@H](CCC(=O)O)C(=O)N[C@@H](CCC(N)=O)C(=O)N[C@@H](CCC(=O)O)C(=O)N[C@@H](CCSC)C(=O)N[C@@H](Cc1ccccc1)C(=O)N[C@@H](CCCNC(=N)N)C(=O)N[C@@H](CC(=O)O)C(=O)N[C@@H](Cc1ccccc1)C(=O)N[C@@H](C)C(=O)N[C@@H](Cc1ccc(O)cc1)C(=O)N[C@@H](CC(C)C)C(=O)N[C@@H](C)C(=O)N[C@@H](CC(=O)O)C(=O)N[C@@H](Cc1c[nH]c2ccccc12)C(=O)N[C@@H](CS)C(=O)O [D978A-PIFtide] (H-REPRILSEEEQEMFRDFAYLADWC-OH; N-terminus and C-terminus assumed) | poorly inhibited |
| – | CC[C@H](C)[C@H](NC(=O)[C@H](Cc1ccc(O)cc1)NC(=O)[C@H](CC(=O)O)NC(=O)[C@H](Cc1ccccc1)NC(=O)[C@H](CC(=O)O)NC(=O)[C@H](CCCNC(=N)N)NC(=O)[C@H](Cc1ccccc1)NC(=O)[C@H](CCSC)NC(=O)[C@H](CCC(=O)O)NC(=O)[C@H](CCC(N)=O)NC(=O)[C@H](CCC(=O)O)NC(=O)[C@H](CCC(=O)O)NC(=O)[C@H](CCC(=O)O)NC(=O)[C@H](CO)NC(=O)[C@H](CC(C)C)NC(=O)[C@@H](NC(=O)[C@H](CCCNC(=N)N)NC(=O)[C@@H]1CCCN1C(=O)[C@H](CCC(=O)O)NC(=O)[C@@H](N)CCCNC(=N)N)[C@@H](C)CC)C(=O)N[C@@H](C)C(=O)N[C@@H](CC(=O)O)C(=O)N[C@@H](Cc1c[nH]c2ccccc12)C(=O)N[C@@H](CS)C(=O)O [PIFtide] (H-REPRILSEEEQEMFRDFDYIADWC-OH; N-terminus and C-terminus assumed) | unable to phosphorylate |
| unable to phosphorylate | GST-PIF: glutathione S-transferase fused to the last 77 residues of PRK2 (PIF) | – |
